Assays:
[1] = test system: intact (INT) and ovariectomized (OVX) female rats; experiment: EM-652.HCl and DHEA, energy balance and lipid-lipoprotein metabolism, high sucrose-high fat diet (Example 9); assay type: in vivo; settings: 20 days, EM-652.HCl 0.5 mg/rat per os, DHEA 20 mg/rat topical
Method: The objective of this study was to determine the effects of EM-652.HCl and DHEA, administered alone or in combination, on energy balance and lipid-lipoprotein metabolism in rats. The effect of treatments was evaluated on many parameters following a 20-day treatment with EM-652.HCl (0.5 mg/rat, ˜2.5 mg/kg, per os) and DHEA (20 mg/rat, ˜100 mg/kg, topical application), administered alone or in combination, to intact (INT) and ovariectomized (OVX) female rats receiving a high sucrose-high fat diet. For comparison, one intact and ovariectomized control group received the enriched diet while other control animals (intact and OVX) received the commercial rodent diet.
d) Diet: • During the acclimation period, rats received a commercial rodent diet (Purina, #5075) and tap water ad libitum. During study period, groups 1 & 2 continued to receive the commercial diet while groups 3 to 10 received a high sucrose-high fat diet composed of (g/100 g): Sucrose, 45; Corn oil, 10; Lard, 10; Casein, 22.5; dl-Methionine, 0.3; Vitamin mix, 1.2; AIN-76 mineral mix, 5.5; Fiber, 5.5.44
80 rats were assigned to 10 groups of 8 rats for conduct of the study outlined below.
On day 0 of the study, rats from the appropriate groups were ovariectomized (by bilateral flank incision) under Isoflurane anesthesia. Intact rats were sham-operated.
Administration of the tested compounds or vehicle started the day following the ovariectomy (Day 1). […] Rats from control groups received the vehicle alone (per os and topically). Rats were killed on day 21 of the study approximately 24 hours after the last dosing.
Rats were weighed on day 0 (surgery), every 2 days during the study period and on the day of necropsy. Body weights were recorded with a precision of 1.0 g.
On day 21 of the study, overnight fasted rats were killed approximately 24 hours after the last dosing. They were anesthesized with ketamine-xylazine and blood drawn by cardiac punction.
Blood lipids (Total cholesterol and Triglycerides) were measured on frozen serum samples using the Boehringer Mannheim Diagnostic Hitachi 911 Analyzer (Boehringer Mannheim Diagnostic Laboratory Systems). Circulating hormones and substrates (Insulin, leptin, glucose) were measured on serum samples as follow: • Insulin: Linco RIA kit • Glucose: Beckmann automatic glucose analyser • Leptin: Linco RIA kit Organs and Tissues Collected
The following tissues were collected and weighed for all animals: • Muscle (soleus and VLM), fat (retroperitoneal and inguinal), and brown adipose tissue.
A piece of liver was frozen for later determination of TG and CHOL content (Folchis method) while the other tissues were processed for determination of LPL activity.

intact female rats = experiment: 6-month treatment, fat accumulation in intact female rats receiving or not LHRH-A (Example 5); assay type: in vivo, Rattus norvegicus; set-up: FAT (%): dose or concentration left out as unconfirmed; settings: 6 months; for FAT (%): DEXA, once daily; for increment of the percentage of body fat under LHRH-A: concomitant with LHRH-A
Method: The objective of this study is to determine the effect on fat of treatment with EM-652.HCl and dehydroepiandrosterone (DHEA) in intact female rats receiving or not a luteinizing hormone releasing hormone agonist (LHRH-A, LHRH ethylamide diacetate). For this purpose, intact female rats, treated or not with LHRH-A (2 μg/rat), received daily administration of EM-652.HCl (2.5 mg/kg) and DHEA (100 mg/kg), alone or in combination, for 6 months. EM-652.HCl was administered orally, DHEA was applied topically while LHRH-A was injected subcutaneously. All treatments were administered once daily.
One hundred twenty rats were separated into 8 groups of 15 animals for conduct of the study outlined below:
The LHRH-A is available in solution at a concentration of 1.0 mg/ml. We diluted this concentrated solution (in order to obtain a final concentration of 0.004 mg/ml) by using the following vehicle: 0.3% Sodium Chloride and 0.25% Sodium Phosphate monobasic, monohydrate in water. The sodium hydroxide (aqueous) was used to adjust the pH between 5.6-6.2.
Dosing suspensions/solutions were prepared every two weeks according to the most recent body weight (group mean) except for the LHRH-A solution. For EM-652.HCl administered orally, the vehicle (0.4% methylcellulose) was added to the tested compound, previously weighed into a glass bottle, at least 48 hours prior to the first dosing day. To ensure the homogeneity of dosing suspension, it was stirred at least 48 hours at 2 to 8 C. Dosing suspension was kept at 2 to 8 C. For DHEA solution applied topically, the ethanol was added to DHEA and the mix were agitated until dissolution of DHEA. Then, the polypropylene glycol was added and the solution agitated until homogeneity. Dosing solution was kept at 2 to 8 C. For LHRH-A solution injected subcutaneously, a dilution of the concentrated solution using the appropriate vehicle was prepared every month. Dosing solution was kept at 2 to 8 C.
The administration of tested compounds or vehicle was given from on Study Day 1 of the protocol. The tested compounds were given as suspension in 0.4% methylcellulose by oral gavage (0.5 ml/gavage/rat) once daily or were applied topically in 50% ethanol-50% propylene glycol (0.5 ml/application/rat) once daily. Rats from groups 5 to 8 received also the LHRH-A once daily by subcutaneous injection (0.5 ml/injection/rat). Rats not receiving a tested compound orally and/or topically received the appropriate vehicle alone.
Body composition was measured on whole skeleton of animal under Isoflurane-induced anesthesia using dual energy x-ray absorptiometry (DEXA; QDR 4500A, Hologic) during the acclimation period and after 6 months of treatment.

| Structure (SMILES) | Brown adipose tissue Lipoprotein lipase activity ([1]; OVX rats) [μU/g protein] | Brown adipose tissue weight ([1]; OVX rats) [g] | Plasma glucose ([1]; OVX rats) [mmol/L] | Plasma insulin ([1]; OVX rats) [nmol/L] | Plasma leptin ([1]; OVX rats) [ng/mL] | Plasma total cholesterol ([1]; OVX rats) [mmol/L] | Plasma triglycerides ([1]; OVX rats) [mmol/L] | Soleus muscle Lipoprotein lipase activity ([1]; OVX rats) [μU/g protein] | Soleus muscle weight ([1]; OVX rats) [g] | Total weight ([1]; OVX rats) [g] | VastusLateralis muscle Lipoprotein lipase activity ([1]; OVX rats) [μU/g protein] | VastusLateralis muscle weight ([1]; OVX rats) [g] | White adipose tissue inguinal Lipoprotein lipase activity ([1]; OVX rats) [μU/g protein] | White adipose tissue inguinal weight ([1]; OVX rats) [g] | White adipose tissue retroperitoneal Lipoprotein lipase activity ([1]; OVX rats) [μU/g protein] | White adipose tissue retroperitoneal weight ([1]; OVX rats) [g] | liver total cholesterol ([1]; OVX rats) [mmol/L] | liver triglycerides ([1]; OVX rats) [mmol/L] | Brown adipose tissue Lipoprotein lipase activity ([1]; sham rats) [μU/g protein] | Brown adipose tissue weight ([1]; sham rats) [g] | other results |
| --- | --- | --- | --- | --- | --- | --- | --- | --- | --- | --- | --- | --- | --- | --- | --- | --- | --- | --- | --- | --- | --- |
| C[C@]12CC[C@H](O)CC1=CC[C@@H]1[C@@H]2CC[C@]2(C)C(=O)CC[C@@H]12 [DHEA, dehydroepiandrosterone] | 1069 ± 96 | 0.342 ± 0.049 | 8.64 ± 0.24 | 0.052 ± 0.009 | 2.757 ± 0.631 | 1.57 ± 0.12 | 0.62 ± 0.08 | 45.9 ± 4.7 | 0.103 ± 0.005 | 274 ± 9 | 13.1 ± 5.4 | 0.920 ± 0.049 | 583 ± 134 | 0.885 ± 0.156 | 1905 ± 112 | 1.699 ± 0.151 | 0.079 ± 0.005 | 0.165 ± 0.047 | 982 ± 72 | 0.373 ± 0.036 | Plasma glucose ([1]; sham rats): 8.05 ± 0.51 mmol/L; Plasma insulin ([1]; sham rats): 0.048 ± 0.012 nmol/L; Plasma leptin ([1]; sham rats): 1.977 ± 0.255 ng/mL; Plasma total cholesterol ([1]; sham rats): 1.59 ± 0.17 mmol/L; Plasma triglycerides ([1]; sham rats): 0.61 ± 0.11 mmol/L; Soleus muscle Lipoprotein lipase activity ([1]; sham rats): 53.6 ± 7.5 μU/g protein; Soleus muscle weight ([1]; sham rats): 0.105 ± 0.004 g; Total weight ([1]; sham rats): 252 ± 5 g; VastusLateralis muscle Lipoprotein lipase activity ([1]; sham rats): 11.5 ± 2.0 μU/g protein; VastusLateralis muscle weight ([1]; sham rats): 0.893 ± 0.043 g; White adipose tissue inguinal Lipoprotein lipase activity ([1]; sham rats): 194 ± 45 μU/g protein; White adipose tissue inguinal weight ([1]; sham rats): 0.659 ± 0.075 g; White adipose tissue retroperitoneal Lipoprotein lipase activity ([1]; sham rats): 1177 ± 188 μU/g protein; White adipose tissue retroperitoneal weight ([1]; sham rats): 1.067 ± 0.149 g; liver total cholesterol ([1]; sham rats): 0.068 ± 0.003 mmol/L; liver triglycerides ([1]; sham rats): 0.038 ± 0.007 mmol/L; FAT (%) (intact female rats): 20.2 ± 2.3%; increment of the percentage of body fat under LHRH-A (intact female rats): 19% |
| CC1=C(c2ccc(O)cc2)[C@H](c2ccc(OCCN3CCCCC3)cc2)Oc2cc(O)ccc21.Cl [EM-652.HCl, (S)-(+)-7-hydroxy-3-(4′-hydroxyphenyl)-4-methyl-2-(4″-(2′″-piperidino-ethoxy)phenyl)-2H-1-benxopyran hydrochloride] | 678 ± 65 | 0.408 ± 0.025 | 9.06 ± 0.30 | 0.089 ± 0.013 | 1.989 ± 0.326 | 1.15 ± 0.11 | 0.97 ± 0.16 | 39.1 ± 5.0 | 0.104 ± 0.004 | 268 ± 5 | 10.8 ± 3.2 | 0.944 ± 0.030 | 310 ± 63 | 0.709 ± 0.085 | 1612 ± 186 | 1.370 ± 0.211 | 0.092 ± 0.006 | 0.348 ± 0.078 | 1196 ± 83 | 0.306 ± 0.044 | Plasma glucose ([1]; sham rats): 9.03 ± 0.49 mmol/L; Plasma insulin ([1]; sham rats): 0.057 ± 0.004 nmol/L; Plasma leptin ([1]; sham rats): 2.019 ± 0.402 ng/mL; Plasma total cholesterol ([1]; sham rats): 1.15 ± 0.06 mmol/L; Plasma triglycerides ([1]; sham rats): 0.60 ± 0.12 mmol/L; Soleus muscle Lipoprotein lipase activity ([1]; sham rats): 53.9 ± 3.3 μU/g protein; Soleus muscle weight ([1]; sham rats): 0.098 ± 0.005 g; Total weight ([1]; sham rats): 238 ± 5 g; VastusLateralis muscle Lipoprotein lipase activity ([1]; sham rats): 16.2 ± 3.1 μU/g protein; VastusLateralis muscle weight ([1]; sham rats): 0.965 ± 0.034 g; White adipose tissue inguinal Lipoprotein lipase activity ([1]; sham rats): 160 ± 23 μU/g protein; White adipose tissue inguinal weight ([1]; sham rats): 0.435 ± 0.043 g; White adipose tissue retroperitoneal Lipoprotein lipase activity ([1]; sham rats): 1277 ± 56 μU/g protein; White adipose tissue retroperitoneal weight ([1]; sham rats): 1.058 ± 0.162 g; liver total cholesterol ([1]; sham rats): 0.096 ± 0.011 mmol/L; liver triglycerides ([1]; sham rats): 0.360 ± 0.102 mmol/L; FAT (%) (intact female rats): 19.1 ± 1.4%; increment of the percentage of body fat under LHRH-A (intact female rats): 35% |
